# Test: CHI Log D procedure
# Type: physicochemical
# Conditions: pH 7.4
row,Compound,CHI Log D
1,"CC(=O)N1CCC[C@]12CC=CCCCC1(CCCC=CCCCCCC[C@@](C)(C(=O)N[C@@H](Cc3ccccc3)C(=O)N[C@@H](Cc3c[nH]c4ccccc34)C(=O)N[C@@H](CCC(N)=O)C(N)=O)NC(=O)[C@H](C(C)C)NC(=O)[C@H](Cc3ccccc3)NC(=O)[C@H](C)NC(=O)[C@H](C)NC(=O)[C@H](CC(=O)O)NC(=O)[C@H](CC(=O)O)NC1=O)NC(=O)[C@H](C)NC(=O)[C@H](CCC(=O)O)NC2=O (stereo partly drawn) [I-280, Ac-PL3-Glu-Ala-B5-Asp-Asp-Ala-Ala-Phe-Val-S8-Phe-Trp-Gln-NH2]",1.991
2,"CC(=O)N[C@@H](Cc1ccccc1)C(=O)N[C@@H](CC(=O)O)C(=O)N[C@@H](C)C(=O)N[C@]1(C)CCCCCCC=CCOC(=O)N2CC[C@@](C(=O)N[C@@H](Cc3ccccc3)C(=O)N[C@@H](Cc3c[nH]c4ccccc34)C(=O)N[C@@H](CCC(N)=O)C(N)=O)(C2)NC(=O)[C@H](C(C)C)NC(=O)[C@H](Cc2ccccc2)NC(=O)[C@H](C)NC(=O)[C@H](C)NC(=O)[C@H](Cc2cccnc2)NC(=O)[C@H](CC(=O)O)NC1=O (single isomer, unassigned) [I-10, Ac-Phe-Asp-Ala-R8-Asp-3PyrA-Ala-Ala-Phe-Val-PyrS-Phe-Trp-Gln-NH2]",1.661
3,"CC(=O)N[C@@H](Cc1ccccc1)C(=O)N[C@@H](CC(=O)O)C(=O)N[C@@H](C)C(=O)N[C@]1(C)CCCCCCC=CCOC(=O)N2CC[C@@](C(=O)N[C@@H](Cc3ccccc3)C(=O)N[C@@H](Cc3c[nH]c4ccccc34)C(=O)N[C@@H](CCC(N)=O)C(N)=O)(C2)NC(=O)[C@H](C(C)C)NC(=O)[C@H](Cc2ccccc2)NC(=O)[C@H](C)NC(=O)[C@H](C)NC(=O)[C@H](CCC(=O)O)NC(=O)[C@H](CC(=O)O)NC1=O [I-3, Ac-Phe-Asp-Ala-R8-Asp-Glu-Ala-Ala-Phe-Val-PyrS-Phe-Trp-Gln-NH2]",1.307
4,"CC(=O)N1CCC[C@]12CC=CCCCC1(CCCC=CCCCCCC[C@@](C)(C(=O)N[C@@H](Cc3ccccc3)C(=O)N[C@@H](Cc3c[nH]c4ccccc34)C(=O)N[C@@H](CO)C(N)=O)NC(=O)[C@H](C(C)C)NC(=O)[C@H](Cc3ccccc3)NC(=O)[C@H](C)NC(=O)[C@H](C)NC(=O)[C@H](CC(=O)O)NC(=O)[C@H](CC(=O)O)NC1=O)NC(=O)[C@H](C)NC(=O)[C@H](CC(=O)O)NC2=O (single isomer, unassigned) [I-335, Ac-PL3-Asp-Ala-B5-Asp-Asp-Ala-Ala-Phe-Val-S8-Phe-WCHO-Ser-NH2]",1.928
5,"CC[C@H](C)[C@@H]1NC(=O)[C@H](CC(=O)O)NC(=O)[C@]2(CC=CCCCC3(CCCC=CCCCCCC[C@@](C)(C(=O)N[C@@H](Cc4ccccc4)C(=O)N[C@@H](Cc4csc5ccccc45)C(=O)N[C@@H](CCC(N)=O)C(N)=O)NC(=O)[C@H](CCC(N)=O)NC(=O)[C@H](Cc4ccccc4)NC(=O)[C@H](C)NC(=O)[C@H](C)NC(=O)[C@H](CCC(=O)O)NC(=O)[C@H](CNS(=O)(=O)C(F)(F)F)NC3=O)NC1=O)CCCN2C(C)=O (stereo partly drawn) [I-631, Ac-PL3-Asp-Ile-B5-[Tf]Dap-Glu-Ala-Ala-Phe-Gln-S8-Phe-BztA-Gln-NH2]",4.365
6,"CC(=O)N[C@@H](Cc1ccccc1)C(=O)N[C@@H](CC(=O)O)C(=O)N[C@@H](C)C(=O)N[C@]1(C)CCCCCCC=CCOC(=O)N2CC[C@@](C(=O)N[C@@H](Cc3ccccc3)C(=O)N[C@@H](Cc3c[nH]c4ccccc34)C(=O)N[C@@H](CCC(N)=O)C(N)=O)(C2)NC(=O)[C@H](C(C)C)NC(=O)[C@H](Cc2ccccc2)NC(=O)[C@H](C)NC(=O)[C@H](C)NC(=O)[C@H](Cc2ccc3ccccc3c2)NC(=O)[C@H](CC(=O)O)NC1=O [I-115, Ac-Phe-Asp-Ala-R8-Asp-2NapA-Ala-Ala-Phe-Val-PyrS-Phe-Trp-Gln-NH2]",2.145

# Same assay, conditions: pH 7.4, CHI Log D
row,Compound,chromatographic logD
1,"CC[C@H](C)[C@H](NC(=O)[C@H](CC(=O)O)NC(=O)[C@H](C)NC(C)=O)C(=O)N[C@]1(C)CCN(C)C(=O)OCC=CCCCCC[C@@](C)(C(=O)N[C@@H](Cc2ccccc2)C(=O)N[C@@H](Cc2c[nH]c3ccccc23)C(=O)N[C@@H](Cc2c[nH]cn2)C(N)=O)NC(=O)[C@H](CCC(N)=O)NC(=O)[C@H](Cc2ccccc2)NC(=O)[C@H](C)NC(=O)[C@H](C)NC(=O)[C@H](CCC(C)C)NC(=O)[C@H](CC(=O)O)NC1=O (single isomer, unassigned) [I-70, Ac-Ala-Asp-Ile-RdN-Asp-hLeu-Ala-Ala-Phe-Gln-S7-Phe-Trp-His-NH2]",1.61
2,"CC(=O)N1CCC[C@]12CC=CCCCC1(CCCC=CCCCCCC[C@@](C)(C(=O)N[C@@H](Cc3ccccc3)C(=O)N[C@@H](Cc3c[nH]c4ccccc34)C(=O)N[C@@H](CCC(N)=O)C(N)=O)NC(=O)[C@H](C(C)C)NC(=O)[C@H](Cc3ccccc3)NC(=O)[C@H](C)NC(=O)[C@H](C)NC(=O)[C@H](C(c3ccccc3)c3ccccc3)NC(=O)[C@H](CC(=O)O)NC1=O)NC(=O)[C@H](C)NC(=O)[C@H](CC(=O)O)NC2=O (stereo partly drawn) [I-303, Ac-PL3-Asp-Ala-B5-Asp-DipA-Ala-Ala-Phe-Val-S8-Phe-Trp-Gln-NH2]",3.13
3,"CC(=O)N1CCC[C@]12CC=CCCCC1(CCCC=CCCCCCC[C@@](C)(C(=O)N[C@@H](Cc3ccccc3)C(=O)N[C@@H](Cc3csc4ccccc34)C(=O)N[C@@H](CCC(N)=O)C(N)=O)NC(=O)[C@H](C(C)C)NC(=O)[C@H](Cc3ccccc3)NC(=O)[C@H](C)NC(=O)[C@H](C)NC(=O)[C@H](CCc3ccccc3)NC(=O)[C@H](CC(=O)O)NC1=O)NC(=O)[C@H](C)NC(=O)[C@H](CC(=O)O)NC2=O (stereo partly drawn) [I-301, Ac-PL3-Asp-Ala-B5-Asp-hPhe-Ala-Ala-Phe-Val-S8-Phe-BztA-Gln-NH2]",3.26
4,"CC(=O)N[C@@H](Cc1ccccc1)C(=O)N[C@@H](CC(=O)O)C(=O)N[C@@H](C)C(=O)N[C@]1(C)CCCCCCC=CCOC(=O)N2CC[C@@](C(=O)N[C@@H](CC3CCCCC3)C(=O)N[C@@H](Cc3c[nH]c4ccccc34)C(=O)N[C@@H](CCC(N)=O)C(N)=O)(C2)NC(=O)[C@H](C(C)C)NC(=O)[C@H](Cc2ccccc2)NC(=O)[C@H](C)NC(=O)[C@H](C)NC(=O)[C@H](CC(=O)O)NC(=O)[C@H](CC(=O)O)NC1=O (single isomer, unassigned) [I-60, Ac-Phe-Asp-Ala-R8-Asp-Asp-Ala-Ala-Phe-Val-PyrS-Cha-Trp-Gln-NH2]",1.36
5,"CC(=O)N[C@@H](Cc1ccccc1)C(=O)N[C@@H](CC(=O)O)C(=O)N[C@@H](C)C(=O)N[C@]1(C)CCCCCCC=CCOC(=O)N2CC[C@@](C(=O)N[C@@H](Cc3ccccc3)C(=O)N[C@@H](Cc3c[nH]c4ccccc34)C(=O)N[C@@H](CCC(N)=O)C(N)=O)(C2)NC(=O)[C@H](C(C)C)NC(=O)[C@H](Cc2ccccn2)NC(=O)[C@H](C)NC(=O)[C@H](C)NC(=O)[C@H](CC(=O)O)NC(=O)[C@H](CC(=O)O)NC1=O [I-86, Ac-Phe-Asp-Ala-R8-Asp-Asp-Ala-Ala-2PyrA-Val-PyrS-Phe-Trp-Gln-NH2]",1.24
6,"CC(=O)N[C@@H](Cc1ccccc1)C(=O)N[C@@H](CC(=O)O)C(=O)N[C@@H](C)C(=O)N[C@]1(C)CCCCCC=CCOC(=O)N2CC(C(=O)N[C@@H](Cc3ccccc3)C(=O)N[C@@H](Cc3c[nH]c4ccccc34)C(=O)N[C@@H](CCC(N)=O)C(N)=O)(C2)NC(=O)[C@H](C(C)C)NC(=O)[C@H](Cc2ccccc2)NC(=O)[C@H](C)NC(=O)[C@H](C)NC(=O)[C@H](CC(=O)O)NC(=O)[C@H](CC(=O)O)NC1=O [I-38, Ac-Phe-Asp-Ala-R7-Asp-Asp-Ala-Ala-Phe-Val-Az-Phe-Trp-Gln-NH2]",1.21
7,"CC(=O)N1CCC[C@]12CC=CCCCC1(CCCC=CCCCCCC[C@@](C)(C(=O)N[C@@H](Cc3ccccc3)C(=O)N[C@@H](Cc3c[nH]c4ccccc34)C(N)=O)NC(=O)[C@H](C(C)C)NC(=O)[C@H](Cc3ccccc3)NC(=O)[C@H](C)NC(=O)[C@H](C)NC(=O)[C@H](CCC(=O)O)NC(=O)[C@H](CC(=O)O)NC1=O)NC(=O)[C@H](C)NC(=O)[C@H](CC(=O)O)NC2=O (stereo partly drawn) [I-128, Ac-PL3-Asp-Ala-B5-Asp-Glu-Ala-Ala-Phe-Val-S8-Phe-Trp-NH2]",2.22
8,"CC(=O)N[C@@H](Cc1ccccc1)C(=O)N[C@@H](CC(=O)O)C(=O)N[C@@H](C)C(=O)N[C@]1(C)CCCCCCC=CCOC(=O)N2CC[C@@](C(=O)N[C@@H](Cc3ccccc3)C(=O)N[C@@H](Cc3c[nH]c4ccccc34)C(=O)N[C@@H](CCC(N)=O)C(N)=O)(C2)NC(=O)[C@H](C(C)C)NC(=O)[C@H](Cc2ccccc2)NC(=O)[C@H](C)NC(=O)[C@H](C)NC(=O)[C@H](CC2CCCCC2)NC(=O)[C@H](CC(=O)O)NC1=O (single isomer, unassigned) [I-15, Ac-Phe-Asp-Ala-R8-Asp-Cha-Ala-Ala-Phe-Val-PyrS-Phe-Trp-Gln-NH2]",2.21
9,"CC(=O)N[C@@H](Cc1ccccc1)C(=O)N[C@@H](CC(=O)O)C(=O)N[C@@H](C)C(=O)N[C@]1(C)CCCCCCC=CCOC(=O)N2CC[C@@](C(=O)N[C@@H](Cc3ccccc3)C(=O)N[C@@H](Cc3c[nH]c4ccccc34)C(=O)N[C@@H](CCC(N)=O)C(N)=O)(C2)NC(=O)[C@H](C(C)C)NC(=O)[C@H](Cc2cccc(F)c2)NC(=O)[C@H](C)NC(=O)[C@H](C)NC(=O)[C@H](CC(=O)O)NC(=O)[C@H](CC(=O)O)NC1=O [I-77, Ac-Phe-Asp-Ala-R8-Asp-Asp-Ala-Ala-3FF-Val-PyrS-Phe-Trp-Gln-NH2]",1.28
10,"CC(=O)N[C@@H](Cc1ccccc1)C(=O)N[C@@H](CC(=O)O)C(=O)N[C@@H](C)C(=O)N[C@]1(C)CCCCCCC=CCOC(=O)N2CC[C@@](C(=O)N[C@@H](Cc3cccc(C(N)=O)c3)C(=O)N[C@@H](Cc3c[nH]c4ccccc34)C(=O)N[C@@H](CCC(N)=O)C(N)=O)(C2)NC(=O)[C@H](C(C)C)NC(=O)[C@H](Cc2ccccc2)NC(=O)[C@H](C)NC(=O)[C@H](C)NC(=O)[C@H](CC(=O)O)NC(=O)[C@H](CC(=O)O)NC1=O [I-107, Ac-Phe-Asp-Ala-R8-Asp-Asp-Ala-Ala-Phe-Val-PyrS-3CBMF-Trp-Gln-NH2]",1
11,"CC(=O)N[C@@H](Cc1ccccc1)C(=O)N[C@@H](CC(=O)O)C(=O)N[C@]1(C)CCN(C)C(=O)OCC=CCCCCC[C@@](C)(C(=O)N[C@@H](C)C(=O)N[C@@H](Cc2ccccc2)C(=O)N[C@@H](Cc2c[nH]c3ccccc23)C(=O)N[C@@H](CCC(N)=O)C(N)=O)NC(=O)[C@H](Cc2ccccc2)NC(=O)[C@H](C)NC(=O)[C@H](C)NC(=O)[C@H](CC(=O)O)NC(=O)[C@H](CC(=O)O)NC(=O)[C@H](C)NC1=O (single isomer, unassigned) [I-49, Ac-Phe-Asp-RdN-Ala-Asp-Asp-Ala-Ala-Phe-S7-Ala-Phe-Trp-Gln-NH2]",1.18

# — patent US20240116985A1, “STAPLED PEPTIDES AND METHODS THEREOF” (priority 2020, published 2024)
